Among the data in ChEMBL document CHEMBL1140175, “Synthesis and evaluation of novel boron-containing complexes of potential use for the selective treatment of malignant melanoma” (J Med Chem, 2008) are Activity values, retold here.

Series [1] addresses T1, Tyrosinase (Agaricus bisporus) (UniProt O42713).
T1 sequence (whole entry): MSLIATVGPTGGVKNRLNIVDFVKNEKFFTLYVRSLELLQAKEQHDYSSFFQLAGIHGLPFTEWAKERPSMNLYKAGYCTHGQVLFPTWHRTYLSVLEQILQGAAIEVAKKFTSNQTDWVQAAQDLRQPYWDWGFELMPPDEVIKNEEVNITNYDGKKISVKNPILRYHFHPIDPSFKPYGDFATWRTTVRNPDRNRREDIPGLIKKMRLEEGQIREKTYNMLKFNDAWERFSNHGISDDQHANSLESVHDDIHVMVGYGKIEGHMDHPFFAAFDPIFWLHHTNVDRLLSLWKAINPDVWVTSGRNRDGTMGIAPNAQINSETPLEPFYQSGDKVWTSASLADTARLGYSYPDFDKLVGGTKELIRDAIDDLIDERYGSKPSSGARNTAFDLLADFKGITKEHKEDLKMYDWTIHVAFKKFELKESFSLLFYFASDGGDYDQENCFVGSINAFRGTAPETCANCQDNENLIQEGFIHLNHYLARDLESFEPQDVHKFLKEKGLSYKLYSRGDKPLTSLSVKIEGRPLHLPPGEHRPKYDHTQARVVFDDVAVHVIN
Description: Binding affinity to mushroom tyrosinase assessed as […].

Series [2] can be described thus: Cellular uptake in human SK-MEL-23 cells assessed as boron content at 50 uM after 2 hrs relative to control. In kind it is ADME, cell-based.
Series [3] can be described thus: Cellular uptake in human SK-MEL-23 cells assessed as boron content at 50 uM after 6 hrs relative to control. In kind it is ADME, cell-based.
Series [4] is described as follows: Cellular uptake in human SK-MEL-23 cells assessed as boron content at 50 uM relative to control. It is filed as ADME, cell-based.
The nature of series [5]: Cytotoxicity against human SK-MEL-23 cells assessed as LDH release up to 100 uM after 6 hrs by colorimetric assay. In kind it is functional. In general terms: LDH in the medium is a marker of cell lysis.
The subject of the next series is MCF7. Description: Cytotoxicity against human MCF7 cells assessed as LDH release up to 100 uM after 6 hrs by colorimetric assay. In kind it is functional.

The source made the active and inactive calls. No cut-off for these calls is given here. Where only a bound is given, the exact number is not on record here.

On to `O=C1O[B-]2([NH2+][C@H]1Cc1ccc(O)cc1)C1CCCC2CCC1` (some centres undefined), for which the result in series [1] was Active. Further, the Activity is 50% in series [2]; more than 50% in series [3]; “Not Active” in series [4]; less than 5% in series [5]; less than 5% in the series with MCF7.
In the case of `O=C1O[B-]2([NH2+][C@H]1Cc1c[nH]c3ccc(O)cc13)C1CCCC2CCC1` (some centres undefined), the outcome in series [1] was inactive.
For the compound `O=C1O[B-]2([NH2+][C@H]1Cc1ccccc1)C1CCCC2CCC1` (some centres undefined), the outcome in series [1] was inactive.
For `O=C1O[B-]2([NH2+][C@H]1Cc1ccc(O)c(O)c1)C1CCCC2CCC1` (some centres undefined), the outcome in series [1] was Active.
